Measured values taken from US10647675B2 (priority 2015, dated 2020).
In brackets after ≈: the same amount, converted by molar mass.

Experiments:
[1] = system: Trichophyton mentagrophytes SM-110; experiment: Antifungal activity evaluation test: minimum inhibitory concentration (MIC), broth dilution by reference to CLSI M38-A2; format: cell-based; conditions: SM110, read-out: MIC (T. menta.)
Method in brief: (§1)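 MIC read visually as lowest concentration inhibiting growth by at least 80% relative to control after 4 days at 35° C. Trichophyton strains inoculated at 2×10^3 cells/mL final in MOPS-buffered RPMI 1640 (pH 7.0); compounds as 2-fold DMSO series, CLSI M38-A2 basis.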

[2] = system: Trichophyton rubrum KD-1130; experiment: as above; format: cell-based; conditions: KD1130, read-out: MIC (T. rubrum)
Method in brief: as §1

| SMILES | MIC [1] | MIC [2] |
| --- | --- | --- |
| CCOc1ncc(Oc2ncccc2-c2ccc(F)cc2OC)cn1 [I-187, 2-ethoxy-5-{[3-(4-fluoro-2-methoxyphenyl)pyridin-2-yl]oxy}pyrimidine] | 1.56 to 6.25 µg/mL (≈ 4.57 to 18.3 µM) | 1.56 to 6.25 µg/mL (≈ 4.57 to 18.3 µM) |
| COc1cc(F)ccc1-c1cccnc1Oc1cnc(N(C)CC#N)nc1 [I-189] | 0.2 to 0.78 µg/mL (≈ 0.547 to 2.13 µM) | 0.2 to 0.78 µg/mL (≈ 0.547 to 2.13 µM) |
| COc1cc(F)ccc1-c1cccnc1Oc1cnc(I)nc1 [I-191, 5-{[3-(4-fluoro-2-methoxyphenyl)pyridin-2-yl]oxy}-2-iodopyrimidine] | 0.2 to 0.78 µg/mL (≈ 0.473 to 1.84 µM) | 0.2 to 0.78 µg/mL (≈ 0.473 to 1.84 µM) |
| CCOC(=O)CCc1ncc(Oc2ncccc2-c2ccc(F)cc2OC)cn1 [I-195, ethyl 3-(5-{[3-(4-fluoro-2-methoxyphenyl)pyridin-2-yl]oxy}-pyrimidin-2-yl)propionate] | 0.2 to 0.78 µg/mL (≈ 0.503 to 1.96 µM) | 0.2 to 0.78 µg/mL (≈ 0.503 to 1.96 µM) |
| CCOC(=O)COc1ncc(Oc2ncccc2-c2ccc(F)cc2OC)cn1 [I-196, ethyl 2-[(5-{[3-(4-fluoro-2-methoxyphenyl)pyridin-2-yl]oxy}-pyrimidin-2-yl)oxy]acetate] | 0.2 to 0.78 µg/mL (≈ 0.501 to 1.95 µM) | 0.2 to 0.78 µg/mL (≈ 0.501 to 1.95 µM) |
| COc1cc(F)ccc1-c1cccnc1Oc1cnc(CCc2cnn(C)c2)nc1 [I-198, 5-{[3-(4-fluoro-2-methoxyphenyl)pyridin-2-yl]oxy}-2-[2-(1-methyl-1H-pyrazol-4-yl)ethyl]pyrimidine] | 0.2 to 0.78 µg/mL (≈ 0.493 to 1.92 µM) | 0.2 to 0.78 µg/mL (≈ 0.493 to 1.92 µM) |
| COc1c(Cl)cncc1-c1cccnc1Oc1ccc(C(F)(F)F)cc1 [I-211, 5′-chloro-4′-methoxy-2-[4-(trifluoromethyl)phenoxy]-3,3′-bipyridine] | ≤ 0.1 µg/mL | ≤ 0.1 µg/mL |
| COc1c(F)cncc1-c1cccnc1Oc1ccc(C(F)(F)F)cc1 [I-212, 5′-fluoro-4′-methoxy-2-[4-(trifluoromethyl)phenoxy]-3,3′-bipyridine] | ≤ 0.1 µg/mL | ≤ 0.1 µg/mL |
| COc1cccc(-c2cccnc2Oc2ccc(C(F)(F)F)cc2)n1 [I-213, 6-methoxy-2′-[4-(trifluoromethyl)phenoxy]-2,3′-bipyridine] | ≤ 0.1 µg/mL | ≤ 0.1 µg/mL |
| COc1ccncc1-c1cc(F)cnc1Oc1ccc(C(F)(F)F)cc1 [I-216, 5-fluoro-4′-methoxy-2-[4-(trifluoromethyl)phenoxy]-3,3′-bipyridine] | ≤ 0.1 µg/mL | ≤ 0.1 µg/mL |
| COc1ccncc1-c1cc(Cl)cnc1Oc1ccc(C(F)(F)F)cc1 [I-217, 5-chloro-4′-methoxy-2-[4-(trifluoromethyl)phenoxy]-3,3′-bipyridine] | 1.56 to 6.25 µg/mL (≈ 4.1 to 16.4 µM) | 1.56 to 6.25 µg/mL (≈ 4.1 to 16.4 µM) |
| COc1nccnc1-c1cccnc1Oc1ccc(C(F)(F)F)cc1 [I-218, 2-methoxy-3-{2-[4-(trifluoromethyl)phenoxy]pyridin-3-yl}pyrazine] | ≤ 0.1 µg/mL | ≤ 0.1 µg/mL |
| COc1ncncc1-c1cccnc1Oc1ccc(C(F)(F)F)cc1 [I-219, 4-methoxy-5-{2-[4-(trifluoromethyl)phenoxy]pyridin-3-yl}pyrimidine] | ≤ 0.1 µg/mL | ≤ 0.1 µg/mL |
| Cc1nn(C)c(Cl)c1-c1cccnc1Oc1ccc(C(F)(F)F)cc1 [I-220, 3-(5-chloro-1,3-dimethyl-1H-pyrazol-4-yl)-2-[4-(trifluoromethyl)phenoxy]pyridine] | ≤ 0.1 µg/mL | ≤ 0.1 µg/mL |
| Cn1nccc1-c1cccnc1Oc1ccc(C(F)(F)F)cc1 [I-221, 3-(1-methyl-1H-pyrazol-5-yl)-2-[4-(trifluoromethyl)phenoxy]pyridine] | 0.2 to 0.78 µg/mL (≈ 0.626 to 2.44 µM) | 0.2 to 0.78 µg/mL (≈ 0.626 to 2.44 µM) |
| Cn1ncc(Cl)c1-c1cccnc1Oc1ccc(C(F)(F)F)cc1 [I-222, 3-(4-chloro-1-methyl-1H-pyrazol-5-yl)-2-[4-(trifluoromethyl)phenoxy]pyridine] | ≤ 0.1 µg/mL | ≤ 0.1 µg/mL |
| COc1c(-c2cccnc2Oc2ccc(C(F)(F)F)cc2)cnn1C [I-223, 3-(5-methoxy-1-methyl-1H-pyrazol-4-yl)-2-[4-(trifluoromethyl)phenoxy]pyridine] | 0.2 to 0.78 µg/mL (≈ 0.573 to 2.23 µM) | 0.2 to 0.78 µg/mL (≈ 0.573 to 2.23 µM) |
| FC(F)(F)c1ccc(Oc2ncccc2-c2cccc3nccnc23)cc1 [I-224, 5-{2-[4-(trifluoromethyl)phenoxy]pyridin-3-yl}quinoxaline] | ≤ 0.1 µg/mL | ≤ 0.1 µg/mL |
| FC(F)(F)c1ccc(Oc2ncccc2-c2cncc3cccnc23)cc1 [I-225, 8-{2-[4-(trifluoromethyl)phenoxy]pyridin-3-yl}-1,6-naphthyridine] | ≤ 0.1 µg/mL | ≤ 0.1 µg/mL |
| FC(F)(F)c1ccc(Oc2ncccc2-c2ccnc3cccnc23)cc1 [I-226, 4-{2-[4-(trifluoromethyl)phenoxy]pyridin-3-yl}-1,5-naphthyridine] | ≤ 0.1 µg/mL | ≤ 0.1 µg/mL |
| FC(F)(F)c1ccc(Oc2ncccc2-c2cncc3nccnc23)cc1 [I-227, 8-{2-[4-(trifluoromethyl)phenoxy]pyridin-3-yl}pyrido[3,4-b]pyrazine] | ≤ 0.1 µg/mL | ≤ 0.1 µg/mL |
| FC(F)(F)c1ccc(Oc2ncccc2-c2cccc3ccnn23)cc1 [I-228, 7-{2-[4-(trifluoromethyl)phenoxy]pyridin-3-yl}pyrazolo[1,5-a]pyridine] | ≤ 0.1 µg/mL | ≤ 0.1 µg/mL |
| FC(F)(F)c1ccc(Oc2ncccc2-c2cccn3ccnc23)cc1 [I-229, 8-{2-[4-(trifluoromethyl)phenoxy]pyridin-3-yl}imidazo[1,2-a]pyridine] | 0.2 to 0.78 µg/mL (≈ 0.563 to 2.2 µM) | 1.56 to 6.25 µg/mL (≈ 4.39 to 17.6 µM) |
| FC(F)(F)c1ccc(Oc2ncccc2-c2cccc3ncnn23)cc1 [I-230, 5-{2-[4-(trifluoromethyl)phenoxy]pyridin-3-yl}[1,2,4]triazolo[1,5-a]pyridine] | 0.2 to 0.78 µg/mL (≈ 0.561 to 2.19 µM) | 0.2 to 0.78 µg/mL (≈ 0.561 to 2.19 µM) |
| FC(F)(F)c1ccc(Oc2ncccc2-c2cncc3nccn23)cc1 [I-231, 5-{2-[4-(trifluoromethyl)phenoxy]pyridin-3-yl}imidazo[1,2-a]pyrazine] | 1.56 to 6.25 µg/mL (≈ 4.38 to 17.5 µM) | 1.56 to 6.25 µg/mL (≈ 4.38 to 17.5 µM) |

Further lines, results first:

| MIC [1] | MIC [2] | SMILES |
| --- | --- | --- |
| ≤ 0.1 µg/mL | ≤ 0.1 µg/mL | CCN(C)c1ncc(Oc2ncccc2-c2ccc(F)cc2OC)cn1 [I-184, N-ethyl-5-{[3-(4-fluoro-2-methoxyphenyl)pyridin-2-yl]oxy}-N-methylpyrimidin-2-amine] |
| ≤ 0.1 µg/mL | ≤ 0.1 µg/mL | COc1cc(F)ccc1-c1cccnc1Oc1cnc(N(C)C)nc1 [I-185, 5-{[3-(4-fluoro-2-methoxyphenyl)pyridin-2-yl]oxy}-N,N-dimethylpyrimidin-2-amine] |
| ≤ 0.1 µg/mL | ≤ 0.1 µg/mL | CCCSc1ncc(Oc2ncccc2-c2ccc(F)cc2OC)cn1 [I-186, 2-(propylthio)-5-{[3-(4-fluoro-2-methoxyphenyl)pyridin-2-yl]oxy}-pyrimidine] |
| ≤ 0.1 µg/mL | ≤ 0.1 µg/mL | COCCN(C)c1ncc(Oc2ncccc2-c2ccc(F)cc2OC)cn1 [I-188, 5-{[3-(4-fluoro-2-methoxyphenyl)pyridin-2-yl]oxy}-N-(2-methoxyethyl)-N-methylpyrimidin-2-amine] |
| ≤ 0.1 µg/mL | ≤ 0.1 µg/mL | COC(=O)CN(C)c1ncc(Oc2ncccc2-c2ccc(F)cc2OC)cn1 [I-192, methyl 2-[(5-{[3-(4-fluoro-2-methoxyphenyl)pyridin-2-yl]oxy}-pyrimidin-2-yl)(methyl)amino]acetate] |
| ≤ 0.1 µg/mL | ≤ 0.1 µg/mL | COc1cc(F)ccc1-c1cccnc1Oc1cnc(N(C)Cc2cocn2)nc1 [I-193, 5-{[3-(4-fluoro-2-methoxyphenyl)pyridin-2-yl]oxy}-N-methyl-N-(oxazol-4-ylmethyl)pyrimidin-2-amine] |
| ≤ 0.1 µg/mL | 0.2 to 0.78 µg/mL (≈ 0.472 to 1.84 µM) | COc1cc(F)ccc1-c1cccnc1Oc1cnc(N(C)Cc2nccs2)nc1 [I-194, 5-{[3-(4-fluoro-2-methoxyphenyl)pyridin-2-yl]oxy}-N-methyl-N-(thiazol-2-ylmethyl)pyrimidin-2-amine] |
| ≤ 0.1 µg/mL | ≤ 0.1 µg/mL | COc1ccccc1-c1cccnc1Oc1ccc(Cl)cc1 [I-199, 2-(4-chlorophenoxy)-3-(2-methoxyphenyl)pyridine] |
| ≤ 0.1 µg/mL | ≤ 0.1 µg/mL | COc1cccc(-c2cccnc2Oc2ccc(Cl)cc2)c1 [I-200, 2-(4-chlorophenoxy)-3-(3-methoxyphenyl)pyridine] |
| ≤ 0.1 µg/mL | ≤ 0.1 µg/mL | COc1ccccc1-c1cccnc1Oc1ccc(C(F)(F)F)cc1 [I-201, 3-(2-methoxyphenyl)-2-[4-(trifluoromethyl)phenoxy]pyridine] |
| ≤ 0.1 µg/mL | ≤ 0.1 µg/mL | COc1ncccc1-c1cccnc1Oc1ccc(C(F)(F)F)cc1 [I-202, 2-methoxy-2′-[4-(trifluoromethyl)phenoxy]-3,3′-bipyridine] |
| ≤ 0.1 µg/mL | ≤ 0.1 µg/mL | COc1ccnc(OC)c1-c1cccnc1Oc1ccc(C(F)(F)F)cc1 [I-203, 2,4-dimethoxy-2′-[4-(trifluoromethyl)phenoxy]-3,3′-bipyridine] |
| ≤ 0.1 µg/mL | ≤ 0.1 µg/mL | COc1cnccc1-c1cccnc1Oc1ccc(C(F)(F)F)cc1 [I-204, 3′-methoxy-2-[4-(trifluoromethyl)phenoxy]-3,4′-bipyridine] |
| ≤ 0.1 µg/mL | ≤ 0.1 µg/mL | Cc1cnccc1-c1cccnc1Oc1ccc(C(F)(F)F)cc1 [I-205] |
| ≤ 0.1 µg/mL | ≤ 0.1 µg/mL | Cc1ccncc1-c1cccnc1Oc1ccc(C(F)(F)F)cc1 [I-206, 4′-methyl-2-[4-(trifluoromethyl)phenoxy]-3,3′-bipyridine] |
| ≤ 0.1 µg/mL | ≤ 0.1 µg/mL | Fc1cncc(-c2cccnc2Oc2ccc(C(F)(F)F)cc2)c1Cl [I-207, 4′-chloro-5′-fluoro-2-[4-(trifluoromethyl)phenoxy]-3,3′-bipyridine] |
| ≤ 0.1 µg/mL | ≤ 0.1 µg/mL | Cc1c(F)cncc1-c1cccnc1Oc1ccc(C(F)(F)F)cc1 [I-208] |
| ≤ 0.1 µg/mL | ≤ 0.1 µg/mL | COc1ncc(F)cc1-c1cccnc1Oc1ccc(C(F)(F)F)cc1 [I-209, 5-fluoro-2-methoxy-2′-[4-(trifluoromethyl)phenoxy]-3,3′-bipyridine] |
| ≤ 0.1 µg/mL | ≤ 0.1 µg/mL | COc1ccncc1-c1cccnc1Oc1ccc(C(F)(F)F)cc1 [I-210, 4′-methoxy-2-[4-(trifluoromethyl)phenoxy]-3,3′-bipyridine] |
